Measured values as given in patent US20120071505A1, “SUBSTITUTED PYRIDINE DERIVATIVES, PHARMACEUTICAL COMPOSITIONS, AND METHODS OF USE TO TREAT OXIDATIVE STRESS” (HIGH POINT PHARMACEUTICALS, LLC, priority 2009, published 2012).

Tested on: HMOX1 mRNA expression
Assay: Oxidative stress gene expression (mRNA) protocol: heme oxygenase mRNA induction in NHLF cells (Quantigene Plex 2.0, Luminex)
Assay type: cell-based, human
Conditions: 2.5 μM compound, 6 h, normalized to GAPDH, above DMSO treated cells
Procedure: Oxidative Stress Gene Expression (mRNA) Protocol
Cell Culture. Normal Human Fibroblast (NHLF), were obtained from Lonza. Cultures of cells were maintained in Fibroblast Growth Medium (FGM-2) medium supplemented with 2% fetal bovine serum (FBS), Fibroblast Growth Factor (hFGF-B) 0.5 ml, Insulin 0.5 ml, gentamicin/amphotericin-B 0.5 mL at 37° C. in a humidified atmosphere of 5% CO2. Primary isolates of cell are cultured in T-225 flasks (Corning) as per instructions from the vendor. Cells are grown to 80% confluence before harvesting. Cells are harvested by first washing with 5 mL of Hepes buffered saline solution (Lonza). The buffered salt solution is aspirated and then 5 mL of a solution of Trypsin-EDTA is added to detach the cells from the culture flask. To this mixture 5 mL of Trypsin neutralization solution (Lonza) is added Trypsin. The mixture is centrifuged at 500×g for 10 minutes at 4° C. The cell pellet is resuspended to a final concentration of one million cells per milliliter in fetal bovine serum containing 6% DMSO. The cells are then dispensed into cyrovials and frozen in liquid nitrogen for storage.
Heme oxygenase mRNA expression. Secondary growth of NHLF cells are used for all assays. Cell are thawed and then placed into culture in T225 flasks. The cells are grown to 80% confluency and harvested by washing once with HEPES buffered saline solution and then trypsinized. Equal numbers (7×10^3 cells per well) of NHLF cells were plated in 96 well tissue culture plates (Corning). Cells were incubated overnight in FGM-2 medium prior to exposure to compound. Cells were treated with either DMSO or a compound of the Examples above for 6 h. Preparation of cell lysates was carried out according to instructions using the Quantigene Reagent system 2.0 protocol (Panomics). Heme oxygenase mRNA induction was detected from cell lysate using the Quantigene Plex 2.0 Assay Kit (Panomics) on the Luminex platform (BIO-RAD). Expression of GAPDH mRNA was used as the internal control for the Quantigen Plex 2.0 Assay. The data in Table 1 represents the fold change of heme oxygenase mRNA expression, normalized to control values, above DMSO treated cells.

Row | SMILES | Fold Change of HMOX1 mRNA expression (at 2.5 μM)
1 | CC1OCCC1S(=O)(=O)c1c(-c2ccc(C(F)(F)F)cc2)cnc2ccccc12 (centres unmarked) [Example 27, 3-(4-trifluoromethyl-phenyl)-4-(2-methyl-tetrahydro-furan-3-sulfonyl)-quinoline] | 27.5 (at 2.5 μM) fold

Same assay, conditions: 3 μM compound, 6 h, normalized to GAPDH, above DMSO treated cells

Row | SMILES | Fold Change of HMOX1 mRNA expression (at 3 μM)
2 | CCOC(=O)c1cnc2c(OC)cccc2c1S(=O)(=O)C1CCCCC1 [Example 3, 4-Cyclohexanesulfonyl-8-methoxy-quinoline-3-carboxylic acid ethyl ester] | 6.7 (at 3 μM) fold
3 | COc1cccc2c(S(=O)(=O)C3CCOC3C)c(C(=O)OC3CCCCC3)cnc12 (centres unmarked) [Example 8, 8-Methoxy-4-(2-methyl-tetrahydro-furan-3-sulfonyl)-quinoline-3-carboxylic acid cyclohexyl ester] | 4.5 (at 3 μM) fold
4 | COc1cccc2c(S(=O)(=O)C3CCOC3C)c(C(=O)OCC3CCCCC3)cnc12 (centres unmarked) [Example 9, 8-Methoxy-4-(2-methyl-tetrahydro-furan-3-sulfonyl)-quinoline-3-carboxylic acid cyclohexylmethyl ester] | 2 (at 3 μM) fold
5 | COc1cccc2c(S(=O)(=O)C3CCOC3C)c(C(=O)OCC3CCCO3)cnc12 (centres unmarked) [Example 11, 8-Methoxy-4-(2-methyl-tetrahydro-furan-3-sulfonyl)-quinoline-3-carboxylic acid tetrahydro-furan-2-ylmethyl ester] | 2.7 (at 3 μM) fold
6 | CCCS(=O)(=O)c1cnc2ccc(OC)cc2c1NC1CCCC1 [Example 29, cyclopentyl-[6-methoxy-3-(propane-1-sulfonyl)-quinolin-4-yl]amine] | 4.0 (at 3 μM) fold
7 | CCCS(=O)(=O)c1cnc2ccc(OC)cc2c1NC1CCCCC1 [Example 30, cyclohexyl-[6-methoxy-3-(propane-1-sulfonyl)-quinolin-4-yl]-amine] | 4.0 (at 3 μM) fold
8 | CCCS(=O)(=O)c1cnc2c(OC(F)(F)F)cccc2c1NC1CCCC1 [Example 31, cyclopentyl-[3-(propane-1-sulfonyl)-8-trifluoromethoxy-quinolin-4-yl]-amine] | 4.0 (at 3 μM) fold

Same assay, conditions: 10 μM compound, 6 h, normalized to GAPDH, above DMSO treated cells

Row | SMILES | Fold Change of HMOX1 mRNA expression (at 10 μM)
9 | CCOC(=O)c1cnc2c(OC)cccc2c1S(=O)(=O)Cc1ccoc1 [Example 5, 4-(Furan-3-ylmethanesulfonyl)-8-methoxy-quinoline-3-carboxylic acid ethyl ester] | 2.0 (at 10 μM) fold
10 | CCCC(=O)c1cnc2c(OC)cccc2c1S(=O)(=O)C1CCOC1C (centres unmarked) [Example 7, 1-[8-methoxy-4-(2-methyl-tetrahydro-furan-3-sulfonyl)-quinolin-3-yl]-butan-1-one] | 2.8 (at 10 μM) fold
11 | COCCCOC(=O)c1cnccc1S(=O)(=O)C1CCOC1C (centres unmarked) [Example 21, 4-(2-Methyl-tetrahydro-furan-3-sulfonyl)-nicotinic acid 3-methoxy-propyl ester] | 6.0 (at 10 μM) fold
12 | COCCCOC(=O)c1c[n+]([O-])ccc1S(=O)(=O)C1CCOC1C (centres unmarked) [Example 22, 4-(2-Methyl-tetrahydro-furan-3-sulfonyl)-1-oxy-nicotinic acid 3-methoxy-propyl ester] | 5.6 (at 10 μM) fold

Same assay, conditions: Homo sapiens, 3.75 μM compound, 6 h, normalized to GAPDH, above DMSO treated cells, read-out: Fold Change of HMOX1 mRNA expression at 3.75 μM

Row | SMILES | fold induction at 3.75 µM
13 | CCOC(=O)c1cnc2c(OC)cccc2c1S(C)(=O)=O [Example 1, 4-methanesulfonyl-8-methoxy-quinoline-3-carboxylic acid ethyl ester] | 3.4
14 | CCOC(=O)c1cnc2c(OC)cccc2c1S(=O)(=O)C1CCOC1C (centres unmarked) [Example 2, 8-Methoxy-4-(2-methyl-tetrahydro-furan-3-sulfonyl)-quinoline-3-carboxylic acid ethyl ester] | 48.6
15 | CCOC(=O)c1cnc2c(OC)cccc2c1S(=O)(=O)c1ccoc1C [Example 4, 8-Methoxy-4-(2-methyl-furan-3-sulfonyl)-quinoline-3-carboxylic acid ethyl ester] | 5.8
16 | CCOC(=O)c1cnc2ccccc2c1S(=O)(=O)C1CCOC1C (centres unmarked) [Example 6, 4-(2-Methyl-tetrahydro-furan-3-sulfonyl)-quinoline-3-carboxylic acid ethyl ester] | 64.7
17 | COCCCOC(=O)c1cnc2c(OC)cccc2c1S(=O)(=O)C1CCOC1C (centres unmarked) [Example 10, 8-Methoxy-4-(2-methyl-tetrahydro-furan-3-sulfonyl)-quinoline-3-carboxylic acid 3-methoxy-propyl ester] | 28.5
18 | COCCCOC(=O)c1cnc2c(OC)cccc2c1S(=O)(=O)c1ccoc1C [Example 12, 8-Methoxy-4-(2-methyl-furan-3-sulfonyl)-quinoline-3-carboxylic acid 3-methoxy-propyl ester] | 15.3
19 | COCCCOC(=O)c1cnc2c(OC)cccc2c1S(=O)(=O)Cc1ccoc1 [Example 13, 4-(Furan-3-ylmethanesulfonyl)-8-methoxy-quinoline-3-carboxylic acid 3-methoxy-propyl ester] | 17.2
20 | COCCCOC(=O)c1cnc2ccccc2c1S(=O)(=O)C1CCOC1C (centres unmarked) [Example 14, 4-(2-Methyl-tetrahydro-furan-3-sulfonyl)-quinoline-3-carboxylic acid 3-methoxy-propyl ester] | 52.4
21 | COc1cccc2c(S(=O)(=O)c3ccoc3C)c(C(=O)OCC3CCCO3)cnc12 (centres unmarked) [Example 15, 8-Methoxy-4-(2-methyl-furan-3-sulfonyl)-quinoline-3-carboxylic acid tetrahydro-furan-2-ylmethyl ester] | 4.4
22 | COc1cccc2c(S(=O)(=O)Cc3ccoc3)c(C(=O)OCC3CCCO3)cnc12 (centres unmarked) [Example 16, 4-(Furan-3-ylmethanesulfonyl)-8-methoxy-quinoline-3-carboxylic acid tetrahydro-furan-2-ylmethyl ester] | 2.3
23 | CC1OCCC1S(=O)(=O)c1c(C(=O)OCC2CCCO2)cnc2ccccc12 (centres unmarked) [Example 17, 4-(2-Methyl-tetrahydro-furan-3-sulfonyl)-quinoline-3-carboxylic acid tetrahydro-furan-2-ylmethyl ester] | 7.8
24 | CCCCCOC(=O)c1cnc2c(OC)cccc2c1S(=O)(=O)c1ccoc1C [Example 18, 8-Methoxy-4-(2-methyl-furan-3-sulfonyl)-quinoline-3-carboxylic acid pentyl ester] | 10.2
25 | COc1cccc2c(S(=O)(=O)c3ccoc3C)c(C(=O)OCC3CCCC3)cnc12 [Example 19, 8-Methoxy-4-(2-methyl-furan-3-sulfonyl)-quinoline-3-carboxylic acid cyclopentylmethyl ester] | 12.6
26 | CC1OCCC1Sc1cnc2ccccc2c1S(=O)(=O)C1CCOC1C (centres unmarked) [Example 20, 4-(2-methyl-tetrahydro-furan-3-sulfonyl)-3-(2-methyl-tetrahydro-furan-3-ylsulfanyl)-quinoline] | 25.9
27 | CCCS(=O)(=O)c1ccncc1C(=O)OCCCOC [Example 23, 4-(Propane-1-sulfonyl)-nicotinic acid 3-methoxy-propyl ester] | 4.2
28 | COCCCOC(=O)c1cnccc1S(=O)(=O)CC1CCCCC1 [Example 24, 4-Cyclohexylmethanesulfonyl-nicotinic acid 3-methoxy-propyl ester] | 5.3
29 | COCC#Cc1cnc2ccccc2c1S(=O)(=O)C1CCOC1C (centres unmarked) [Example 25, 3-(3-methoxy-prop-1-ynyl)-4-(2-methyl-tetrahydro-furan-3-sulfonyl)-quinoline] | 13
30 | CCOC(=O)/C=C/c1cnc2ccccc2c1S(=O)(=O)C1CCOC1C (centres unmarked) [Example 26, (E)-3-[4-(2-methyl-tetrahydro-furan-3-sulfonyl)-quinolin-3-yl]acrylic acid ethyl ester] | 13.2
31 | COc1ccc(-c2cnc3ccccc3c2S(=O)(=O)C2CCOC2C)cc1 (centres unmarked) [Example 28, 3-(4-methoxy-phenyl)-4-(2-methyl-tetrahydro-furan-3-sulfonyl)-quinoline] | 12.7
32 | CCCS(=O)(=O)c1cnc2c(OC(F)(F)F)cccc2c1NC1CCCCC1 [Example 32, cyclohexyl-[3-(propane-1-sulfonyl)-8-trifluoromethoxy-quinolin-4-yl]-amine] | 9.8
